Source: patent publication US11414379B2, “SPAK kinase inhibitors as neuroprotective agents” (United States Government as represented by the Department …, priority 2018, dated 2022)

How the values were obtained:
[1] = system: mouse model of ischemic stroke; assay: Neurological function tests after tMCAO; format: in vivo; settings: 5.0 mg/kg
Experimental: The scores were: 0, no observable deficit; 1, forelimb flexion; 2, forelimb flexion and decreased resistance to lateral push; 3, forelimb flexion, decreased resistance to lateral push, and unilateral circling; 4, forelimb flexion and partial or complete lack of ambulation.
In brief, the corner test apparatus consists of two cardboards (30×20×1 cm each) placed together at a 30° angle to form a narrow alley. The mouse was placed between the two angled boards facing the corner. When exiting the corner, uninjured mice turned left or right randomly. […] The numbers of left and right turns of each mouse during 10 trials were recorded, and turning movements that were not part of a rearing movement were not scored. Preoperative training was carried twice per day for three days prior to operation. Postoperatively, animals were tested on day 1, 3, 5, and 7.
In brief, two small pieces of adhesive tape (4 mm×3 mm) were attached to the forepaws in an alternating sequence and with equal pressure by the experimenter before each trial. Animals were released into a testing cage, and the time of contact and removal of the adhesive patch were recorded. Contact was recorded when either shaking of the paw or mouth contact occurred. The trial ended after the adhesive patch was removed or after 2 min had elapsed. Preoperative training was carried twice per day for three days prior to operation. Postoperatively, animals were tested on day 1, 3, 5, and 7.
Referring to FIG. 13, neurological deficit scores, corner tests, and adhesive tape contact and adhesive tape removal tests of mice treated with vehicle or ZT-1a 1 day before tMCAO (˜1) and at days 0, 1, 3, 5, and 7 post-tMCAO are shown. Vehicle (DMSO, 2 ml/kg) or ZT-1a (5.0 mg/kg) were administered as described in B. Data are means±SEM, n=6 for each group (male 3, female 3). * p<0.05 vs. vehicle.

CHK2 = CHK2 (Homo sapiens, UniProt O96017); assay: Kinase panel (Dundee profiling); format: biochemical; settings: read-out: % residual kinase activity
CHK2, sequence (O96017 whole entry, species assumed): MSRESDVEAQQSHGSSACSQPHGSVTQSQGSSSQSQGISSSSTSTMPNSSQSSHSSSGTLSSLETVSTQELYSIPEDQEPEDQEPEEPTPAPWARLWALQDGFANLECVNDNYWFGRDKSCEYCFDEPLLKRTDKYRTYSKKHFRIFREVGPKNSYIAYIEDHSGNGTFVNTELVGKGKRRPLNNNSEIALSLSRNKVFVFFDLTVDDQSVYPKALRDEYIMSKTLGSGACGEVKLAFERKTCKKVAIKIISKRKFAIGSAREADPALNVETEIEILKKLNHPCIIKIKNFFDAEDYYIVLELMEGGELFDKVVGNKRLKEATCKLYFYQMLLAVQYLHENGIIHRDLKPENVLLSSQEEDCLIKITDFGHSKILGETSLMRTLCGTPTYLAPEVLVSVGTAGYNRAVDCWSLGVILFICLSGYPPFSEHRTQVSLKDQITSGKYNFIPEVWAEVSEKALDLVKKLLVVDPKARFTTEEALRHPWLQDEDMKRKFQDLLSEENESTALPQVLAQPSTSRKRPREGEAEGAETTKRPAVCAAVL
In short: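 Testing used recombinant enzymes in a radioactive activity assay at two compound levels, 10 and 1 μM. Data give remaining activity as a percentage of vehicle (DMSO), averaged over n=3 with SEM.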

AMPK (hum) = assay: Kinase panel (Dundee profiling); format: biochemical, human
Experimental: The kinase selectivity of ZT-1a was further assessed using standard radioisotopic enzymatic assays against a panel of 140 recombinant kinases (Dundee profiling, Table 2) (Bain et al. (2007) The Biochemical journal 408, 297-315). ZT-1a at a concentration of 10 μM inhibited only MAPKAP-K2 activity 85±7% compared to DMSO control, representing high kinase selectivity.
Referring to Table 2, ZT-1a was tested at 10 and 1 μM against a panel of 140 recombinant kinases in an enzymatic activity-based assay performed by the International Centre for Kinase Profiling in the MRC Protein Phosphorylation and Ubiquitylation Unit. Values represent % residual kinase activity (mean+/−SEM, n=3). Kinases labelled with an asterick* are inhibited ≥50% by ZT-1a.

SPAK pSer373 = assay: Phosphorylation immunoblot in KCC2-transfected HEK293 cells; format: cell-based, human; settings: concentration inhibiting phosphorylation
Experimental: (§1) HEK293 (human embryonic kidney 293) cells were cultured on 10-cm-diameter dishes in DMEM supplemented with 10% (v/v) foetal bovine serum, 2 mM L-glutamine, 100 U/ml penicillin and 0.1 mg/ml streptomycin. HEK293 cells were transfected with a mixture of 20 μl of 1 mg/ml polyethylenimine (Polysciences) and 5-10 μg of plasmid DNA as described previously (Durocher et al., 2002). 36 hours post-transfection cells were stimulated with either control isotonic or hypotonic medium for a period of 30 minutes. Cells were lysed in 0.3 mL of ice-cold lysis buffer/dish, lysates were clarified by centrifugation at 4° C. for 15 minutes at 26,000 g and the supernatant aliquots were frozen in liquid nitrogen and stored at −20° C. Protein concentrations were determined using the Bradford method. Cells were treated with the indicated concentrations of the SPAK/OSR1 inhibitors. […] Hypotonic low chloride buffer was 67.5 mM sodium-gluconate, 2.5 mM potassium-gluconate, 0.25 mM CaCl2), 0.25 mM MgCl2, 0.5 mM Na2HPO4, 0.5 mM Na2SO4 and 7.5 mM HEPES (pH 7.5).
(§2) The membranes were incubated for 30 min with TBST (Tris-buffered saline, 0.05% Tween-20) containing 5% (w/v) skim milk. The blots were then washed six times with TBST and incubated for 1 hour at room temperature with secondary HRP-conjugated antibodies diluted 5000-fold in 5% (w/v) skim milk in TBST. After repeating the washing steps, signals were detected with enhanced chemiluminescence reagent. Immunoblots were developed using a film automatic processor (SRX-101; Konica Minolta Medical) and films were scanned at 600 dpi (PowerLook 1000; UMAX). Figures were generated using Photoshop/Illustrator (Adobe). The densities of bands were measured with ImageJ. For phospho-antibody immunoprecipitation, KCC isoforms were immunoprecipitated from indicated cell extracts. 2 mg of the indicated clarified cell extract were mixed with 15 μg of the indicated phospho-specific KCC antibody conjugated to 15 μl of protein-G-Sepharose, in the added presence of […] of the dephosphorylated form of the phosphopeptide antigen, and incubated 2 hours at 4° C. with gentle shaking. Immunoprecipitates were washed three times with 1 mL of lysis buffer containing 0.15 M NaCl and twice with 1 ml of buffer A. Bound proteins were eluted with 1×LDS sample buffer.
(§3) HEK293 cells were transfected with a DNA construct encoding wild type N-terminally FLAG-tagged KCC2. 36 hrs post-transfection, cells were exposed 30 min to either control isotonic or hypotonic low [C1^−] conditions, then treated in the same conditions for an additional 30 min with the indicated inhibitors at the concentrations noted. Cell lysates were subjected to SDS-PAGE and Western blotting with the indicated antibodies. See FIG. 3 for Western blot quantitation.
(§4) Referring to FIG. 2, concentration-response experiments testing effects of Closantel analogs on phosphorylation of KCC2 Thr906/Thr1007 are shown. HEK293 cells were transfected with DNA construct encoding wild type N-terminally FLAG-tagged KCC2. 36 h post-transfection, cells were exposed 30 min to either control isotonic conditions or hypotonic low Cl^− conditions, then treated in the same conditions with the specified inhibitors (1b, 1c, 1f, 1d, 1h, and 1g, respectively) at the indicated concentrations for an additional 30 min. Lysates were subjected to SDS-PAGE and Western blotting with the indicated antibodies.
(§5) Referring to FIG. 3, HEK293 cells were transfected with the DNA construct encoding wild type N-terminally FLAG-tagged KCC2. 36 h post-transfection, cells were exposed 30 min to either control isotonic or hypotonic low Cl^− conditions, then treated in the same conditions with the specified inhibitors at the indicated concen-trations for an additional 30 min. Lysates were subjected to SDS-PAGE and Western blotting with the indicated antibodies. Closantel, STOCK1S-14279 and STOCK1S-50699 were used as reference compounds.

KCC2 pThr906 = assay: as above; format: cell-based, human; settings: concentration inhibiting phosphorylation
Experimental: as §1, §2, §3, §4, §5

Cc1cc(C(C#N)c2ccc(Cl)cc2)c(Cl)cc1NC(=O)c1cc(Cl)ccc1O (centres unmarked) [ZT-1a, 5-chloro-N-(5-chloro-4-((4-chlorophenyl)(cyano)methyl)-2-methylphenyl)-2-hydroxy-benzamide]
corner test ([1]; days 1-7 post-stroke): reduced unidirectional turn preference and absence of asymmetries by day 7 post-stroke
adhesive removal test ([1]; vs vehicle, p<0.05): significantly improved motor function
adhesive contact test ([1]; vs vehicle, p=0.10): trend to faster contact response
remaining activity at 1 µM (CHK2; 1 μM): 106 ± 1%
remaining activity at 10 µM (CHK2; 10 μM): 68 ± 6%
% residual kinase activity (AMPK (hum); 1 μM): 126 ± 4%
% residual kinase activity (AMPK (hum); 10 μM): 108 ± 4%
SPAK pSer373 (μM) hypo (SPAK pSer373; hypotonic low Cl- conditions): 3 μM
SPAK pSer373 (μM) Iso (SPAK pSer373; isotonic conditions): 1 μM
KCC2 pThr906 (μM) hypo (KCC2 pThr906; hypotonic low Cl- conditions): 3, 3 μM
KCC2 pThr906 (μM) Iso (KCC2 pThr906; isotonic conditions): 3, 3 μM
